Results reported in patent US20060252800A1, “Anti-leishmania agent” (priority 2003, published 2006).

How the values were obtained:
Leishmania (L. major) = test: Leishmania protozoa proliferation inhibition assay; assay type: cell-based; settings: for OD level (number of viable Leishmania protozoa): 48 hours at 27° C., absorbance 450 nm minus 630 nm; for IC50: calculated from the graphs of FIGS. 1 to 4 (concentration vs number of viable leishmania protozoa), read-out: Concentration inhibiting 50% leishmania proliferation
Experimental: After dissolving each of the obtained compounds in dimethylsulfoxide (hereinafter referred to as DMSO), the resultant was diluted by 9 steps in Medium 199 medium (Invitrogen) to the indicated concentration, filtrated with a membrane filter, and each of the filtration was made as a sample solution. […] By keeping the solution at 27° C., incubation was performed under 5% CO2, for 48 hours. Then, TetraColor ONE (tradename: Seikagaku Corporation) reagent was added thereto and further incubated for 6 hours. Then, the absorbance at a wavelength of 450 nm was measured for the 96-well microtiter plate with a microplate reader, the wave length of 630 nm was made as reference wave length, and in order to exclude background effect, the absorbance at 630 nm was excluded from the one at 450 nm, and the OD level was calculated as a level to indicate the number of viable Leishmania protozoa. The assay was performed by three wells at a time for each concentration of each sample, and the mean level was made as OD level. […] Amphotericin B was used as positive control. […] Inhibiting effect against […] protozoa for each sample was similar or more compared with that of Amtephotericin B.

[1] = Table 1, sample concentration 0.001 mg/ml
[2] = Table 1, sample concentration 0.016384 mg/ml
[3] = Table 1, sample concentration 0.04096 mg/ml
[4] = Table 1, sample concentration 0.1024 mg/ml
[5] = Table 1, sample concentration 0.256 mg/ml
[6] = Table 1, sample concentration 0.64 mg/ml
[7] = Table 1, sample concentration 1.6 mg/ml
[8] = Table 1, sample concentration 4 mg/ml
[9] = Table 1, sample concentration 10 mg/ml
[10] = Table 1, sample concentration 25 mg/ml, mean of three wells
[11] = Table 3, sample concentration 0.001 mg/ml
[12] = Table 3, sample concentration 0.002165 mg/ml
[13] = Table 3, sample concentration 0.0072171 mg/ml
[14] = Table 3, sample concentration 0.02406 mg/ml
[15] = Table 3, sample concentration 0.08019 mg/ml
[16] = Table 3, sample concentration 0.2673 mg/ml
[17] = Table 3, sample concentration 0.891 mg/ml
[18] = Table 3, sample concentration 2.97 mg/ml
[19] = Table 3, sample concentration 9.9 mg/ml
[20] = Table 3, sample concentration 33 mg/ml

With `CCCC[n+]1ccc(/C=c2\s/c(=C3/Sc4ccccc4N3C)c(=O)n2CC)cc1.[Br-]` [I (b), 1-butyl-4-[3-ethyl-{5-(3-methyl-2(3H)-benzothiazolylidene)-4-oxo-2-thiazolidinylidene}methyl]pyridinium=bromide] the “OD level (number of viable Leishmania protozoa)” value (“OD level” for short) (Leishmania (L. major); Table 2, sample concentration 0.0001 mg/ml) was 0.363, the “OD level” value (Leishmania (L. major); Table 2, sample concentration 0.0007 mg/ml) was 0.345 and the “OD level” value (Leishmania (L. major); Table 2, sample concentration 0.002 mg/ml) was 0.335. The “OD level” value (Leishmania (L. major); Table 2, sample concentration 0.008 mg/ml) was 0.335, the “OD level” value (Leishmania (L. major); Table 2, sample concentration 0.025 mg/ml) was 0.435 and the “OD level” value (Leishmania (L. major); Table 2, sample concentration 0.084 mg/ml) was 0.465. For the same compound, the “OD level” value (Leishmania (L. major); Table 2, sample concentration 0.279 mg/ml) was 0.106, the “OD level” value (Leishmania (L. major); Table 2, sample concentration 0.93 mg/ml) was 0.032 and the “OD level” value (Leishmania (L. major); Table 2, sample concentration 3.1 mg/ml) was 0.032. For the same compound, the “OD level” value (Leishmania (L. major); Table 2, sample concentration 2E−04 mg/ml) was 0.343, the IC50 (Leishmania (L. major)) was 3700 nM and the melting point was 299 to 300 °C.

In the case of `CCn1c(=Cc2cc[n+](C)cc2)sc(=C2Sc3ccccc3N2C)c1=O.Cc1ccc(S(=O)(=O)[O-])cc1` [IV (j), 4-[(5-(3-methyl-2(3H)-benzothiazolylidene)-4-oxo-3-ethyl-2-thiazolidinylidene}methyl]-1-methylpyridinium=p-toluenesulfonate], the “OD level” value (Leishmania (L. major); [1]) is reported as 0.446, the “OD level” value (Leishmania (L. major); [2]) is reported as 0.462 and the “OD level” value (Leishmania (L. major); [3]) is reported as 0.468. For the same compound, the “OD level” value (Leishmania (L. major); [4]) was 0.518, the “OD level” value (Leishmania (L. major); [5]) was 0.661 and the “OD level” value (Leishmania (L. major); [6]) was 0.793. For the same compound, the “OD level” value (Leishmania (L. major); [7]) was 0.551, the “OD level” value (Leishmania (L. major); [8]) was 0.275 and the “OD level” value (Leishmania (L. major); [9]) was 0.188. The “OD level” value (Leishmania (L. major); [10]) was 0.057 and the IC50 (Leishmania (L. major)) was 10000 nM.

With `CN1C(=c2sc(=Cc3sc4ccccc4[n+]3C)n(CC3CCCO3)c2=O)Sc2ccccc21.Cc1ccc(S(=O)(=O)[O-])cc1` (stereo not drawn) [IV (k), 2-[{5-(3-methyl-2(3H)-benzothiazolylidene)-4-oxo-3-(2-tetrahydrofuranyl)methyl-2-thiazolidinylidene}methyl]-1-methylbenzothiazolium=p-toluenesulfonate] the “OD level” value (Leishmania (L. major); [11]) was 0.338, the “OD level” value (Leishmania (L. major); [12]) was 0.356 and the “OD level” value (Leishmania (L. major); [13]) was 0.344. The “OD level” value (Leishmania (L. major); [14]) was 0.341, the “OD level” value (Leishmania (L. major); [15]) was 0.351 and the “OD level” value (Leishmania (L. major); [16]) was 0.348. The “OD level” value (Leishmania (L. major); [17]) was 0.371, the “OD level” value (Leishmania (L. major); [18]) was 0.434 and the “OD level” value (Leishmania (L. major); [19]) was 0.154. For the same compound, the “OD level” value (Leishmania (L. major); [20]) was 0.029 and the IC50 (Leishmania (L. major)) was 2600 nM.

For `CN1C(=c2sc(=Cc3cccc[n+]3C)n(CC3CCCO3)c2=O)Sc2ccc3ccccc3c21.Cc1ccc(S(=O)(=O)[O-])cc1` (stereo not drawn) [IV (l), 2-[{5-(3-methyl-2(3H)-benzobenzo[e]thiazolilidene)-4-oxo-3-(2-tetrahydrofuranyl)methyl-2-thiazolidinylidene}methyl]-1-methylpyridinium=p-toluenesulfonate], the “OD level” value (Leishmania (L. major); [11]) was 0.357, the “OD level” value (Leishmania (L. major); [12]) was 0.346 and the “OD level” value (Leishmania (L. major); [13]) was 0.358. The “OD level” value (Leishmania (L. major); [14]) was 0.357, the “OD level” value (Leishmania (L. major); [15]) was 0.377 and the “OD level” value (Leishmania (L. major); [16]) was 0.391. The “OD level” value (Leishmania (L. major); [17]) was 0.178, the “OD level” value (Leishmania (L. major); [18]) was 0.080 and the “OD level” value (Leishmania (L. major); [19]) was 0.035. The “OD level” value (Leishmania (L. major); [20]) was 0.029 and the IC50 (Leishmania (L. major)) was 1300 nM.

For `CCn1c(=Cc2sc3ccccc3[n+]2C)sc(=C2Sc3ccc4ccccc4c3N2C)c1=O.Cc1ccc(S(=O)(=O)[O-])cc1` [IV (m), 2-[{5-(3-methyl-2(3H)-benzobenzo[e]thiazolilidene)-4-oxo-3-ethyl-2-thiazolidinylidene}methyl]-1-methylbenzothiazolium=p-toluenesulfonate], the “OD level” value (Leishmania (L. major); [11]) was 0.340, the “OD level” value (Leishmania (L. major); [12]) was 0.344 and the “OD level” value (Leishmania (L. major); [13]) was 0.342. For the same compound, the “OD level” value (Leishmania (L. major); [14]) was 0.354, the “OD level” value (Leishmania (L. major); [15]) was 0.379 and the “OD level” value (Leishmania (L. major); [16]) was 0.422. The “OD level” value (Leishmania (L. major); [17]) was 0.385, the “OD level” value (Leishmania (L. major); [18]) was 0.149 and the “OD level” value (Leishmania (L. major); [19]) was 0.033. For the same compound, the “OD level” value (Leishmania (L. major); [20]) was 0.027 and the IC50 (Leishmania (L. major)) was 2700 nM.

For `CN1/C(=C\c2cccc[n+]2C)Sc2ccccc21` [V (a), 2-[(3-methyl-2(3H)-benzothiazolylidene)methyl]-1-methylpyridinium=p-toluenesulfonate], the “OD level” value (Leishmania (L. major); [1]) was 0.464, the “OD level” value (Leishmania (L. major); [2]) was 0.615 and the “OD level” value (Leishmania (L. major); [3]) was 1.237. For the same compound, the “OD level” value (Leishmania (L. major); [4]) was 0.596, the “OD level” value (Leishmania (L. major); [5]) was 0.139 and the “OD level” value (Leishmania (L. major); [6]) was 0.046. For the same compound, the “OD level” value (Leishmania (L. major); [7]) was 0.032, the “OD level” value (Leishmania (L. major); [8]) was 0.029 and the “OD level” value (Leishmania (L. major); [9]) was 0.031. For the same compound, the “OD level” value (Leishmania (L. major); [10]) was 0.032 and the IC50 (Leishmania (L. major)) was 490 nM.

In the case of `CCN1C(=O)CS/C1=C\c1sc2ccccc2[n+]1CC` [V (b), 2-[(4-oxo-3-ethyl-2-thiazolidinylidene)methyl]-3-ethylbenzothiazolium=p-toluenesulfonate], the “OD level” value (Leishmania (L. major); [1]) is reported as 0.441, the “OD level” value (Leishmania (L. major); [2]) is reported as 0.458 and the “OD level” value (Leishmania (L. major); [3]) is reported as 0.520. For the same compound, the “OD level” value (Leishmania (L. major); [4]) was 0.533, the “OD level” value (Leishmania (L. major); [5]) was 0.363 and the “OD level” value (Leishmania (L. major); [6]) was 0.145. The “OD level” value (Leishmania (L. major); [7]) was 0.047, the “OD level” value (Leishmania (L. major); [8]) was 0.040 and the “OD level” value (Leishmania (L. major); [9]) was 0.042. The “OD level” value (Leishmania (L. major); [10]) was 0.056 and the IC50 (Leishmania (L. major)) was 1200 nM.
